Test results: ChEMBL document CHEMBL2150874, “Novel and selective inhibitors of histone deacetylase: patent highlight” (ACS Med Chem Lett, 2012)

System: PC-12
Experiment: Neuroprotective activity in rat PC12 cells at 1 uM by lactate dehydrogenase assay
Format: functional

SMILES	Activity
COc1cc(/C=C(/C(=O)N2CCc3ccc(C(=O)NO)cc3C2)c2ccc(F)cc2)ccc1F	67.2%
O=C(NO)c1ccc2c(c1)CN(C(=O)/C(=C/c1ccccc1)c1ccccc1)CC2	36.6%
Cc1ccc(/C(=C\c2ccc(F)cc2)C(=O)N2CCc3ccc(C(=O)NO)cc3C2)cc1	100%
O=C(NO)c1ccc2c(c1)CN(C(=O)/C(=C/c1ccccc1)c1cccc(Cl)c1)CC2	77.8%
O=C(NO)c1ccc2c(c1)CN(C(=O)/C(=C/c1ccc(F)cc1F)c1ccc(F)cc1)CC2	56%
COc1ccc(/C=C(/C(=O)N2CCc3ccc(C(=O)NO)cc3C2)c2ccc(F)cc2)c(OC)c1	38%
COc1ccc(/C=C(/C(=O)N2CCc3ccc(C(=O)NO)cc3C2)c2ccccc2F)cc1OC	100%
Cc1ccc(/C(=C\c2ccccc2)C(=O)N2CCc3ccc(C(=O)NO)cc3C2)cc1	68.7%
O=C(NO)c1ccc2c(c1)CN(C(=O)/C(=C/c1cccs1)c1ccc(F)cc1)CC2	71.8%
COc1ccc(/C=C(/C(=O)N2CCc3ccc(C(=O)NO)cc3C2)c2ccccc2)cc1	55%

Biological target: T1, Protein deacetylase HDAC6 (Homo sapiens, UniProt Q9UBN7)
T1 sequence (Q9UBN7 whole entry): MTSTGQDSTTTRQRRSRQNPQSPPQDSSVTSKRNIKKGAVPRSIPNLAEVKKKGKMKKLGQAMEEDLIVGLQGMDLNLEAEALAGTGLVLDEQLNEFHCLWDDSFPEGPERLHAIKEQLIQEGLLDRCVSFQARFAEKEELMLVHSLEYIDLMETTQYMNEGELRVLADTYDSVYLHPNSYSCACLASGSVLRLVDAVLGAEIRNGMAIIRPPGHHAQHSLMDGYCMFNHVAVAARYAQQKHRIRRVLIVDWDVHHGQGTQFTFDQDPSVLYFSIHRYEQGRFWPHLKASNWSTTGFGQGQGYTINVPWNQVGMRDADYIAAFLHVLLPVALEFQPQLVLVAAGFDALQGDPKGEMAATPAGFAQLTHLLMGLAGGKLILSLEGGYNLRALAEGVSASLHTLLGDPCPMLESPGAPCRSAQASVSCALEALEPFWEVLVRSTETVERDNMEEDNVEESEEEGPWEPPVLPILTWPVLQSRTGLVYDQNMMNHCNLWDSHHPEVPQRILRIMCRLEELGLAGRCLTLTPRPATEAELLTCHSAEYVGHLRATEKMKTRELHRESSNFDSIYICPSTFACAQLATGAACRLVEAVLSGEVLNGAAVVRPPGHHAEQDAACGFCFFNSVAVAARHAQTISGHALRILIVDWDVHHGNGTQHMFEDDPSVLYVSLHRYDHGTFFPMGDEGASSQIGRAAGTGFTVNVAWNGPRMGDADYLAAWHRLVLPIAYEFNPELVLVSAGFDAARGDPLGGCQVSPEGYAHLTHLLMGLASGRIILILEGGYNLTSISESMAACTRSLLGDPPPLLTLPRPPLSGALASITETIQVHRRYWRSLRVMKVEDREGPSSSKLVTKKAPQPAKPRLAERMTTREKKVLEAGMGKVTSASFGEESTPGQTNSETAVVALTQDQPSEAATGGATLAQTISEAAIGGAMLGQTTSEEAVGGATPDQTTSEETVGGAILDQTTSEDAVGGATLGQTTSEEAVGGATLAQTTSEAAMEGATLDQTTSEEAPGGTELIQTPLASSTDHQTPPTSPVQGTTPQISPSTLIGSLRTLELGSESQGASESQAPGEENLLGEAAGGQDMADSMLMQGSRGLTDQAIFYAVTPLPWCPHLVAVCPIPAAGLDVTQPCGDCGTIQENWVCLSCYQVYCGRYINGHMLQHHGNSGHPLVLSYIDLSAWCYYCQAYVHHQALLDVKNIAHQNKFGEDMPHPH
Experiment: Inhibition of HDAC6

SMILES	IC50
COc1cc(/C=C(/C(=O)N2CCc3ccc(C(=O)NO)cc3C2)c2ccc(F)cc2)ccc1F	< 1 nM
O=C(NO)c1ccc2c(c1)CN(C(=O)/C(=C/c1ccccc1)c1ccccc1)CC2	< 1 nM
Cc1ccc(/C(=C\c2ccc(F)cc2)C(=O)N2CCc3ccc(C(=O)NO)cc3C2)cc1	< 1 nM
O=C(NO)c1ccc2c(c1)CN(C(=O)/C(=C/c1ccccc1)c1cccc(Cl)c1)CC2	< 1 nM
O=C(NO)c1ccc2c(c1)CN(C(=O)/C(=C/c1ccc(F)cc1F)c1ccc(F)cc1)CC2	< 1 nM
COc1ccc(/C=C(/C(=O)N2CCc3ccc(C(=O)NO)cc3C2)c2ccc(F)cc2)c(OC)c1	< 1 nM
COc1ccc(/C=C(/C(=O)N2CCc3ccc(C(=O)NO)cc3C2)c2ccccc2F)cc1OC	< 1 nM
Cc1ccc(/C(=C\c2ccccc2)C(=O)N2CCc3ccc(C(=O)NO)cc3C2)cc1	< 1 nM
O=C(NO)c1ccc2c(c1)CN(C(=O)/C(=C/c1cccs1)c1ccc(F)cc1)CC2	< 1 nM
COc1ccc(/C=C(/C(=O)N2CCc3ccc(C(=O)NO)cc3C2)c2ccccc2)cc1	< 1 nM
